Assays:
[1] = target: E. coli PNP (Escherichia coli, UniProt P0ABP8); assay: Substrate cleavage by wild-type E. coli PNP (HPLC); format: biochemical; details: 100 micromolar substrate, HPLC separation of base from nucleoside
Protocol: (§1) The method quantitatively measures the cleavage of substrates in vitro. The purine analog nucleosides (0.1 mM in 500 μl of 100 mM HEPES, pH 7.4, 50 mM potassium phosphate) are combined with 100 μg/ml Tv-PNP or wild-type E. coli PNP. The reaction mixtures are incubated at 25° C. for 1 hour, and the reactions stopped by boiling each sample for 2 minutes. Protein concentration and time of assay are varied depending on activity of enzyme for a particular substrate. Each sample is analyzed by reverse phase HPLC to measure conversion from substrate to product. The nucleoside and purine analogs are eluted from a Spherisorb ODSI (5 μm) column (Keystone Scientific, Inc., State College, Pa.) with a solvent containing 50 mM ammonium dihydrogen phosphate (95%) and acetonitrile (5%). Products are detected by absorbance at 254 nm, and are identified by comparing their retention times and absorption spectra with authentic control samples.
Numerous compounds are tested for efficiency as substrate for Tv-PNP in parallel comparison with E. coli PNP. […] The enzymes are incubated with 100 micromolar of each compound listed in the table and the rate of enzymatic cleavage is determined by HPLC separation of the base from the nucleoside.

[2] = tested on: T. vaginalis PNP; assay: Substrate cleavage by wild-type Tv-PNP (HPLC); format: biochemical, Trichomonas vaginalis; details: for rate of enzymatic cleavage by T. vaginalis PNP: 100 micromolar substrate, HPLC separation of base from nucleoside; for activity of Tv-PNP as compared to wild-type E. coli PNP: summary of Table 1
Protocol: as §1
Numerous compounds are tested for efficiency as substrate for Tv-PNP in parallel comparison with E. coli PNP. The compounds include various analogs of adenosine, of inosine, of MeP-dR, and of fluoro- or chloro-substituted adenosine. The enzymes are incubated with 100 micromolar of each compound listed in the table and the rate of enzymatic cleavage is determined by HPLC separation of the base from the nucleoside. […] It is appreciated that the greater biological activity of the Tv-PNP enzyme allows for greater activity in impairing abnormal cell growth when the Tv-PNP is used for treatment of pathological conditions using F-araA as a prodrug substrate.

E. coli PNP, sequence (P0ABP8 whole entry): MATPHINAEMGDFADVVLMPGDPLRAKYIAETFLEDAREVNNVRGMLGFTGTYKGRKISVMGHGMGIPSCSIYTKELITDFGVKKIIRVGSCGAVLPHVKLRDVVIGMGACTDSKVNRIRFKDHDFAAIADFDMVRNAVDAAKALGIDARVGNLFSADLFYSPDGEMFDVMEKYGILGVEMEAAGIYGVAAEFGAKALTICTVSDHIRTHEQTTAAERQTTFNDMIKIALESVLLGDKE

Row | Molecule | rate of enzymatic cleavage by E. coli PNP [1] | rate of enzymatic cleavage by T. vaginalis PNP [2] | rate of enzymatic cleavage by E. coli PNP ([1]; listed as Cl-dAdo) | rate of enzymatic cleavage by T. vaginalis PNP ([2]; listed as Cl-dAdo) | activity of Tv-PNP as compared to wild-type E. coli PNP [2]
1 | O=c1[nH]cnc2c1ncn2[C@@H]1O[C@H](CO)[C@@H](O)[C@@H]1O [9-β-D-arabinofuranosyl-hypoxanthine] | 61 nanomoles per milligrams per hour | 48 nanomoles per milligrams per hour | – | – | –
2 | Nc1ncnc2c1ncn2[C@@H]1O[C@@H](CO)[C@@H](O)[C@H]1O [9-α-L-lyxofuranosyl-adenine] | 3,700 nanomoles per milligrams per hour | 22,000 nanomoles per milligrams per hour | – | – | –
3 | Nc1nc2c(ncn2[C@@H]2O[C@H](CO)[C@@H](O)[C@@H]2O)c(=O)[nH]1 [9-β-D-arabinofuranosyl-guanine] | 310 nanomoles per milligrams per hour | 16 nanomoles per milligrams per hour | – | – | –
4 | Cc1ncnc2ncn([C@H]3C[C@H](O)[C@H](CO)O3)c12 [7-[2-deoxy-α-L-lyxofuranosyl]-6-methylpurine] | <1 nanomoles per milligrams per hour | <8 nanomoles per milligrams per hour | – | – | –
5 | Nc1nc(Cl)nc2c1ncn2[C@H]1C[C@H](O)[C@@H](CO)O1 [2-Cl-2′-deoxyadenosine (Cl-dAdo), 2-chloro-2′-deoxyadenosine, reference compound] | 39,000 nanomoles per milligrams per hour | 352,000 nanomoles per milligrams per hour | 39,000 nanomoles per milligrams per h | 320,000 nanomoles per milligrams per h | more activity
6 | OC[C@H]1O[C@@H](n2cnc3c(O)ncnc32)C[C@@H]1O [2′-deoxyinosine, reference compound] | 733,000 nanomoles per milligrams per hour | 660,000 nanomoles per milligrams per hour | – | – | –
7 | Nc1ncnc2c1ncn2[C@H]1CC[C@@H](CO)O1 [2′,3′-dideoxyadenosine] | <2 nanomoles per milligrams per hour | 640 nanomoles per milligrams per hour | – | – | –
8 | Cc1ncnc2c1ncn2[C@@H]1O[C@H]([C@H](C)O)[C@@H](O)[C@H]1O [9-[5-methyl-(talo)-β-D-ribofuranosyl]-6-methylpurine] | 915 nanomoles per milligrams per hour | 8,400 nanomoles per milligrams per hour | – | – | more activity
9 | Cc1ncnc2c1ncn2[C@@H]1O[C@H]([C@@H](C)O)[C@@H](O)[C@H]1O [9-[5-methyl-(allo)-β-D-ribofuranosyl]-6-methylpurine] | 47 nanomoles per milligrams per hour | 223 nanomoles per milligrams per hour | – | – | more activity
10 | Nc1nc2c(ncn2[C@@H]2O[C@H](CO)[C@@H](O)[C@H]2O)c(=O)[nH]1 [Guanosine, reference compound] | 156,000 nanomoles per milligrams per hour | 14,000 nanomoles per milligrams per hour | – | – | –
11 | Nc1ncnc2c1ncn2[C@@H]1O[C@H](CO)C[C@H]1O [3′-deoxyadenosine (cordycepin), 3′-deoxyadenosine, reference compound] | <2 nanomoles per milligrams per hour | 2,000 nanomoles per milligrams per hour | – | – | –
12 | Cc1ncnc2c1ncn2[C@@H]1O[C@@H](CI)[C@@H](O)[C@H]1O [9-[5-deoxy-5-iodo-α-L-lyxofuranosyl]-6-methylpurine] | <1 nanomoles per milligrams per hour | <8 nanomoles per milligrams per hour | – | – | –
13 | Nc1nc(Cl)nc2c1ncn2[C@H]1C[C@H](O)[C@@H](CO)O1 [2-Cl-2′-deoxyadenosine (α-L), 2-Cl-2′-deoxyadenosine] | <1 nanomoles per milligrams per hour | <8 nanomoles per milligrams per hour | – | – | –
14 | Nc1ncnc2c1ncn2[C@@H]1O[C@H](CO)[C@H](O)[C@H]1O [9-β-D-xylofuranosyl-adenine] | <2 nanomoles per milligrams per hour | 2 nanomoles per milligrams per hour | – | – | –
15 | Nc1nc(F)nc2c1ncn2[C@@H]1O[C@@H](CO)[C@@H](O)[C@H]1O [9-α-L-lyxofuranosyl-2-F-adenine, 9-(α-L-lyxofuranosyl)-2-fluoroadenine] | 7,800 nanomoles per milligrams per hour | 28,200 nanomoles per milligrams per hour | – | – | more activity
16 | Nc1nc(Cl)nc2c1ncn2[C@H]1C[C@H](O)[C@@H](CO)O1 [2-Cl-2′-deoxyadenosine (β-L), 2-Cl-2′-deoxyadenosine] | <1 nanomoles per milligrams per hour | <8 nanomoles per milligrams per hour | – | – | –
17 | Nc1ncnc2c1ncn2[C@@H]1O[C@H](CO)[C@@H](O)[C@@H]1O [9-β-D-arabinofuranosyl-adenine] | 610 nanomoles per milligrams per hour | 38,000 nanomoles per milligrams per hour | – | – | –
18 | CO[C@@H]1[C@H](O)[C@@H](CO)O[C@H]1n1cnc2c(N)ncnc21 [2′-O^methyl-adenosine] | <1 nanomoles per milligrams per hour | <10 nanomoles per milligrams per hour | – | – | –
19 | Cc1ncnc2c1ncn2[C@@H]1O[C@@H](C)[C@@H](O)[C@H]1O [9-[5-deoxy-α-L-lyxofuranosyl]-6-methylpurine] | 20 nanomoles per milligrams per hour | 246 nanomoles per milligrams per hour | – | – | –
20 | 9-β-D-pyranosyl-adenine | <1 nanomoles per milligrams per hour | 2 nanomoles per milligrams per hour | – | – | –
21 | Cc1ncnc2c1ncn2[C@@H]1O[C@H](C)[C@@H](O)[C@H]1O [9-[5-deoxy-β-D-ribofuranosyl]-6-methylpurine] | 406 nanomoles per milligrams per hour | 3,600 nanomoles per milligrams per hour | – | – | –
22 | Cc1ncnc2c1ncn2[C@@H]1O[C@H](C(C)(C)O)[C@@H](O)[C@H]1O [9-[5,5-dimethyl-β-D-ribofuranosyl]-6-methylpurine] | <1 nanomoles per milligrams per hour | <8 nanomoles per milligrams per hour | – | – | –
23 | NC[C@H]1O[C@@H](n2cnc3c(N)ncnc32)[C@H](O)[C@@H]1O [5′-amino-5′-deoxyadenosine] | 540 nanomoles per milligrams per hour | 4,200 nanomoles per milligrams per hour | – | – | –
24 | O=c1[nH]cnc2ncn([C@@H]3O[C@H](CO)[C@@H](O)[C@H]3O)c12 [7-β-D-ribosyl-hypoxanthine] | 5,200 nanomoles per milligrams per hour | 2,300 nanomoles per milligrams per hour | – | – | –
25 | Nc1ncnc2c1ncn2[C@@H]1O[C@H](CO)[C@@H](O)[C@H]1O [Adenosine, reference compound] | – | 501,000 nanomoles per milligrams per hour | – | – | –
26 | Cc1ncnc2c1ncn2[C@@H]1C[C@H](O)[C@@H](CO)O1 [9-[2-deoxy-α-D-ribofuranosyl]-6-methylpurine] | <1 nanomoles per milligrams per hour | <8 nanomoles per milligrams per hour | – | – | –
27 | C[C@H]1O[C@@H](n2cnc3c(N)ncnc32)[C@H](O)[C@@H]1O [5′-deoxyadenosine] | 8,400 nanomoles per milligrams per hour | 50,000 nanomoles per milligrams per hour | – | – | –

— patent US8628767B2, “Purine nucleoside phosphorylase as enzymatic activator of nucleoside prodrugs” (priority 2008, dated 2014)
